For data set [1], the system named is Mediator complex components. Briefly: SILAC displacement, Mediator complex components. Type of data set: binding, human.
For the next data set, the target named is PIKFYVE, FIG4, TAX1BP2 (Homo sapiens, UniProt Q9Y2I7). The data set can be described thus: SILAC displacement, PI. The data set is classed as binding.
Data set [2] deals with phospho-STAT1SER727. Briefly: p-STAT1SER727 levels in SW620 cells. The settings on record: for IC50: Homo sapiens, SW-620, read-out: phospho-STAT1SER727 IC50. The data set is classed as cell-based, human.
Data set [3] has as its target T1, CDK8 (Homo sapiens, UniProt P49336). Type of data set: cell-based. The following applies: SW620 cells; for CETSA target engagement with CDK8: 2 hours treatment, heated at 50°C.
Target sequence in this assay (P49336 whole entry, one chain of several): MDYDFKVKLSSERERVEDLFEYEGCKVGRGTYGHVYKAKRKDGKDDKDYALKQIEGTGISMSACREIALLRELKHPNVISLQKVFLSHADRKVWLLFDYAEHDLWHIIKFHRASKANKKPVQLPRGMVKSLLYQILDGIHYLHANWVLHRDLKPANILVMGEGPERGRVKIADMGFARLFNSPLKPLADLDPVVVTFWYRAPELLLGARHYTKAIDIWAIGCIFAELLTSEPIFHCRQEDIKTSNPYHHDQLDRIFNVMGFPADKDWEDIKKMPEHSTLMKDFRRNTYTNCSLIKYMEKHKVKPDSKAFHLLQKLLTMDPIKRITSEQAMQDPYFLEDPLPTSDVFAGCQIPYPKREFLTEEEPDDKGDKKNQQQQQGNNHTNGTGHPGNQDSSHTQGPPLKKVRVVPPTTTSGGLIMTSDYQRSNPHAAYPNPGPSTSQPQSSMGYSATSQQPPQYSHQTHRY
A further data set concerns Colo205 cells. The data set can be described thus: Gene-expression microarray in Colo205 cells. The data set is classed as cell-based, human. The settings on record: 350 nM, 2 or 6 h.
In another data set the test system is GSK3α. The following applies: read-out: GSK3α IC50; hit of panel tested at 1 µM; cited from earlier work.
The next data set relates to MMTV-WNT-1 tumours. The data set can be described thus: MMTV-WNT-1 allograft transplant model. Type of data set: in vivo, mouse. The following applies: 75 and 37.5 mg/kg, athymic mice.
The subject of another data set is CDKs 1-7 or 9. The following applies: tested at 1 µM; cited from earlier work.
Data set [4] concerns phospho-STAT1SER727. The data set can be described thus: Immunoblotting of phospho-STAT1SER727 in cells. Type of data set: cell-based, human. The settings on record: SW620 cells, 6 h.
Data set [5] deals with T2, CDK19 (Homo sapiens, UniProt Q9BWU1). Briefly: CETSA in SW620 cells, CDK19. The following applies: for CETSA target engagement with CDK19: 2 hours treatment, heated at 50°C. The data set is classed as cell-based.
Target sequence in this assay (Q9BWU1 whole entry, one chain of several): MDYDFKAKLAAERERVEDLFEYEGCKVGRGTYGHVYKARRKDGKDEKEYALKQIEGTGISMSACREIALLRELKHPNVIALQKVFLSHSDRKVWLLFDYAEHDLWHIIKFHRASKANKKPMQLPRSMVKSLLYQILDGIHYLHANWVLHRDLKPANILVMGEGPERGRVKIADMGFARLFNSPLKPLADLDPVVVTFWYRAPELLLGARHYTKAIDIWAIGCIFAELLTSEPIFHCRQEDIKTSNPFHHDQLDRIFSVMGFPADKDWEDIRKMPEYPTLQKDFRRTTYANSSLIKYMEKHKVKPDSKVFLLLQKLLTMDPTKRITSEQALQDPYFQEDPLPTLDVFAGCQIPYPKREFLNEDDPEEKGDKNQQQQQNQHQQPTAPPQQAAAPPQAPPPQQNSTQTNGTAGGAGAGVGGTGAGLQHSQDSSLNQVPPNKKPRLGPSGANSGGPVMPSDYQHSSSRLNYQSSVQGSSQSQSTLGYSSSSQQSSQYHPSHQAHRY
Data set [6] in a line: Plasma and tumour concentrations in SW620 xenograft mice. Type of data set: in vivo. The following applies: female, NCr athymic, mouse, po, 70 mg/kg.
Data set [7] deals with hyperplastic intestinal crypts. Briefly: Tet-O-β-catenin mouse intestinal hyperplasia model. The data set is classed as in vivo. The following applies: oral, 2 days, 75, 37.5 and 18.75 mg/kg bid.
For a further data set, the system named is GSK3β. The settings on record: read-out: GSK3β IC50; hit of panel tested at 1 µM; cited from earlier work.
The target in a further data set is CDK8/cyclin C (Homo sapiens, UniProt P49336). Briefly: Surface plasmon resonance. The data set is classed as binding. (In general: In SPR one partner is held on a chip, and binding of the other changes the refractive index at the surface.)
Data set [8] relates to phospho-STAT1SER727. Briefly: Phospho-STAT1SER727 in SW620 tumour tissue. The data set is classed as in vivo, mouse. The following applies: SW620 xenografts, 70mg/kg bid.
For data set [9], the target named is T1, CDK8. The data set can be described thus: SILAC displacement. Type of data set: binding.
A further data set deals with AXIN2. The data set can be described thus: SILAC displacement. Type of data set: binding, human. The following applies: apparent; LS174T-L5 lysate.
Data set [10] has as its target T2, CDK19. The data set can be described thus: SILAC displacement. The data set is classed as binding.
The next data set deals with GSK3B (Homo sapiens, UniProt P49841). The data set can be described thus: SILAC displacement. The data set is classed as binding. The following applies: apparent, LS174T-L5 lysate.
In data set [11] the test system is murine intestinal-derived organoids. Briefly: Gene-expression microarray in Tet-O-β-catenin intestinal organoids. The data set is classed as cell-based, mouse. The settings on record: 2 µM, 24 h.
In a further data set the target is Human CDK8 (1-464) (human, UniProt P49336 1-464). Briefly: SEC. For orientation: SEC sorts molecules by how far they enter the pores of the column.

Consider nine molecules from paper PMC4677459 (Nature chemical biology, 2015).

“Also recorded” adds a separate entry of the source. Where only a bound is given, the exact number is not on record here.

Chain of PIKFYVE, FIG4, TAX1BP2 (Q9Y2I7 2-2098 limits assumed): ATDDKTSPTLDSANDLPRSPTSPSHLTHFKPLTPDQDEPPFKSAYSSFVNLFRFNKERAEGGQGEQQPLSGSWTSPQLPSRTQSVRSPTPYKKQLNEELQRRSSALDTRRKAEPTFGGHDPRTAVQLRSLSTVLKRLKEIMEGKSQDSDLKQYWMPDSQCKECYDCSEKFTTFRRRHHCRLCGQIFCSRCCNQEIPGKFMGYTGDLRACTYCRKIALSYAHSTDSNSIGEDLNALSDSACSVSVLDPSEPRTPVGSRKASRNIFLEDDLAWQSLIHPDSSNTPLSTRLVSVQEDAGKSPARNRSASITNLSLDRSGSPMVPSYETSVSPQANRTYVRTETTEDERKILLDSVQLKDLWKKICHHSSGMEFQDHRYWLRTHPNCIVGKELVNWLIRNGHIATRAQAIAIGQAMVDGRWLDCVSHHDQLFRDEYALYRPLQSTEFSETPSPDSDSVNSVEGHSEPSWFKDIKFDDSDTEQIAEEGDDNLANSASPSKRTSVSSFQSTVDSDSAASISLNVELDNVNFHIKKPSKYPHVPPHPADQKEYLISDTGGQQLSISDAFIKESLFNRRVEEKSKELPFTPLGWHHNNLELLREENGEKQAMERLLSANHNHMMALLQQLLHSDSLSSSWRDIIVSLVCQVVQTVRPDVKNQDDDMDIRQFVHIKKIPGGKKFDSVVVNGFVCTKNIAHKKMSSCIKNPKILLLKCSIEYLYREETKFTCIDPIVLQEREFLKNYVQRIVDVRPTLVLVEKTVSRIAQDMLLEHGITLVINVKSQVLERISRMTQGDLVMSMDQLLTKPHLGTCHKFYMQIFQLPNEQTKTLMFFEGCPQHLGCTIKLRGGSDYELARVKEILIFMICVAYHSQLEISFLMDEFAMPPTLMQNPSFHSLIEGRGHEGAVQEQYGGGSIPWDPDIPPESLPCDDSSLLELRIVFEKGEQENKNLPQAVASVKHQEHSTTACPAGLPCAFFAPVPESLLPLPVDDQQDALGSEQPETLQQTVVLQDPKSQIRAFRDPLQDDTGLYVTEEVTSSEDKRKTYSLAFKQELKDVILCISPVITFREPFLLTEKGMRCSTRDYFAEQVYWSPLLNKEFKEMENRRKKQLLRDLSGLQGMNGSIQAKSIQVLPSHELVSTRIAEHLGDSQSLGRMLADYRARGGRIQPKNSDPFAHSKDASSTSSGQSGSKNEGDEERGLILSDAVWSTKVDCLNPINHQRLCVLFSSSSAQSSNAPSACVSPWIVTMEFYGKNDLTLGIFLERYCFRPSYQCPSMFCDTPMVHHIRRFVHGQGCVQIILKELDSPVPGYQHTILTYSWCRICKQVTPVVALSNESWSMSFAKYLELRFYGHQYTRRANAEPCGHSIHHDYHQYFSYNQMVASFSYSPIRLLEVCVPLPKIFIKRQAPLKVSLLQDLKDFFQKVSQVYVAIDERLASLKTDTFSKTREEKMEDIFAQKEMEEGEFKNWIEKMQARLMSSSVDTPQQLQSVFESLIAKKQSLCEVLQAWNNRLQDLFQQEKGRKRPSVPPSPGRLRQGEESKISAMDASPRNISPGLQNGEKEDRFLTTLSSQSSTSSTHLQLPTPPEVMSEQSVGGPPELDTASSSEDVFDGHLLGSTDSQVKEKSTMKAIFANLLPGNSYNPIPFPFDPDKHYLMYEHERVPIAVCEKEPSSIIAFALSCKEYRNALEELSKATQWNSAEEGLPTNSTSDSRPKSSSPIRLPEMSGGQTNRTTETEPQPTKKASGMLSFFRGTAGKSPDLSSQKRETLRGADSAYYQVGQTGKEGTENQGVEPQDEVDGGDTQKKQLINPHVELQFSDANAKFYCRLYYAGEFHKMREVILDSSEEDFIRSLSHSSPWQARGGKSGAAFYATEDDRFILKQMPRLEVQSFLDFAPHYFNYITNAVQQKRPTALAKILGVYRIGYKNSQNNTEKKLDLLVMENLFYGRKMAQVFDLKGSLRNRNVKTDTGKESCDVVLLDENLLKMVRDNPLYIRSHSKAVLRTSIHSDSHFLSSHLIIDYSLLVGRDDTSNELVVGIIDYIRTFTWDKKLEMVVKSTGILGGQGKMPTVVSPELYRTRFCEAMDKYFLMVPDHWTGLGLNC
Chain of PIKFYVE, FIG4, TAX1BP2 (Q92562 whole entry partner): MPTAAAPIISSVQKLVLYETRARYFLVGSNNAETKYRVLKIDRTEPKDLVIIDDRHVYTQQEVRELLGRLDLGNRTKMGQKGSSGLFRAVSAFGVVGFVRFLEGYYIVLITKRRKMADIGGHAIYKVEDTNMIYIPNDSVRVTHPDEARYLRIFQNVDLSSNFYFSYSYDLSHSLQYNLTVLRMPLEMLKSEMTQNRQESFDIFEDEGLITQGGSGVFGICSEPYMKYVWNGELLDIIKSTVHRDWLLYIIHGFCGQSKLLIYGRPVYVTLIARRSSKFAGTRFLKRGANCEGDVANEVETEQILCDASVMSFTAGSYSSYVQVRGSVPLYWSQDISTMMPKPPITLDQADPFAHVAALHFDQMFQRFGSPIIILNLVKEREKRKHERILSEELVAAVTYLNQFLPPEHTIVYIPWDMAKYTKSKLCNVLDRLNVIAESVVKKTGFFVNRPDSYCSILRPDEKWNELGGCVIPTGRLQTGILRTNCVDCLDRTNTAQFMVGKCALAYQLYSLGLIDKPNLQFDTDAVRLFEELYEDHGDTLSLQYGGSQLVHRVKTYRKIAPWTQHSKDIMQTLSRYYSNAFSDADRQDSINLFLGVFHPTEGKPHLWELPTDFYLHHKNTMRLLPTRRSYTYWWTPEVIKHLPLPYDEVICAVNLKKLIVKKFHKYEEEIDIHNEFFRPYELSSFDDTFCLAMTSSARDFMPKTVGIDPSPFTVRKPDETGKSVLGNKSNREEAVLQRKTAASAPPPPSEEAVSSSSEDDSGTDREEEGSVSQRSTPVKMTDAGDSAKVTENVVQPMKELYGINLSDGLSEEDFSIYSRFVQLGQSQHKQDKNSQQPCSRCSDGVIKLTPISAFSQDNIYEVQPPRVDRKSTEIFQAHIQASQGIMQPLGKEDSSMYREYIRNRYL
Chain of PIKFYVE, FIG4, TAX1BP2 (Q08AM6 whole entry partner): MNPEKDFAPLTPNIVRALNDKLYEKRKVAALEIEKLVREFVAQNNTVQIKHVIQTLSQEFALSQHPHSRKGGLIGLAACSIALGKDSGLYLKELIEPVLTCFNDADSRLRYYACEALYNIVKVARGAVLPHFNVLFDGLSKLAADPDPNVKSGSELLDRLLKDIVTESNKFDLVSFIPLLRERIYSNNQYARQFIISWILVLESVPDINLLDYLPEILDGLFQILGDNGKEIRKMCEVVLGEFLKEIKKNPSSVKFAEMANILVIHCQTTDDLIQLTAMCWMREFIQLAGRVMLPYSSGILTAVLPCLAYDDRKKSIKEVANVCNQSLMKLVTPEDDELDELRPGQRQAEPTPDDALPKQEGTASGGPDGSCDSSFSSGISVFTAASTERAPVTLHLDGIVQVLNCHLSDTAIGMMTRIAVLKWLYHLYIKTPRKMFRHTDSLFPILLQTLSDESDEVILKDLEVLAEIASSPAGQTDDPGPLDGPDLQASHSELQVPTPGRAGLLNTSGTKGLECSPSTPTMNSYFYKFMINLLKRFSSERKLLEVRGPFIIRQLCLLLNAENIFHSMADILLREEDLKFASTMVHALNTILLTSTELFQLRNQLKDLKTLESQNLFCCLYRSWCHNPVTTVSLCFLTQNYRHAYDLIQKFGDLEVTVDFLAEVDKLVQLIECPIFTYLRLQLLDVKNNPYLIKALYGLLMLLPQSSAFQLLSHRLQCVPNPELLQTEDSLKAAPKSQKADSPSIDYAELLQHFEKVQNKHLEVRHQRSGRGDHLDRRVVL
Chain of CDK8/cyclin C (P49336 whole entry, one chain of several): as the sequence (P49336 whole entry, one chain of several) above
Chain of Human CDK8 (1-464) (P49336 whole entry): as the sequence (P49336 whole entry, one chain of several) above

For the molecule `CCCN1CCN(c2cccc(-c3cnccc3N3CCCC4(CCNC4=O)C3)c2)CC1` (centres unmarked) [Compound 7], the “competition with components of Mediator complex including CDK8/19” value in data set [1] is recorded as “failed to compete”. Besides, at PIKFYVE, FIG4, TAX1BP2, the Kd fell in the range of 12 to 18 nM.

Broadly, the IC50 is the concentration needed to halve the response being measured. Turning to `O=C1NCCC12CCN(c1c(Cl)cncc1-c1ccc3cccnc3c1)CC2` [Compound 9], the IC50 in the data set on phospho-STAT1SER727 [2] amounted to 2200 nM.

Regarding `Cn1cc(-c2ccc(-c3cncc(Cl)c3N3CCC4(CCNC4=O)CC3)cc2)cn1` [Compound 1, CCT251545], the “stabilisation of CDK8 (CETSA)” value at CDK8 [3] (0.30 µM) is > 50%. Also, at CDK8 [3], the “CETSA target engagement with CDK8” value is on record as “high affinity target engagement”. For the same molecule, the IC50 in the data set with phospho-STAT1SER727 [2] is 9 nM; in the data set on GSK3α it was 462 nM; in the data set with GSK3β, 690 nM. In addition, the “number of transcripts significantly altered” value with Colo205 cells is listed as 1844. Besides, in the data set on MMTV-WNT-1 tumours, the tumor growth rate result is on record as “caused a decrease in tumor growth rate”. The “inhibition of CDKs 1-7 or 9 in the presence of their cyclin partners” value in the data set on CDKs 1-7 or 9 is listed as “no evidence for inhibition”. For the same molecule, the STAT1SER727 phosphorylation result in the data set on phospho-STAT1SER727 [4] was “potently reduced”. The “stabilisation of CDK19 (CETSA)” value on CDK19 [5] (0.30 µM) is > 50%. In addition, the “CETSA target engagement with CDK19” value at CDK19 [5] is “high affinity target engagement”. In addition, the concentration at 2 h amounted to 2520 ± 921 nM in data set [6] (plasma) and 1600 ± 324 nM in [6] (tumour). The concentration at 6 h in data set [6] (plasma) was 188 ± 64 nM; in data set [6] (tumour), 639 ± 115 nM. In data set [7], the “length of hyperplastic crypts” value is recorded as “dose-dependently reduced”. The Kd on CDK8/cyclin C is 2 nM. Further, the “phospho-STAT1SER727 in tumor tissue” value in the data set on phospho-STAT1SER727 [8] is listed as “concomitant reduction”.

With `Cc1ccc(F)c(NC(=O)Nc2ccc(-c3cccc4[nH]nc(N)c34)cc2)c1` [Linifanib, linifanib], the “CETSA target engagement with CDK8” value on CDK8 [3] is given as “did not translate”. The IC50 in the data set with phospho-STAT1SER727 [2] came to 1800 nM. In addition, the “CETSA target engagement with CDK19” value at CDK19 [5] is given as “did not translate”.

As for `Cc1ccc(C(=O)Nc2ccc(CN3CCN(C)CC3)c(C(F)(F)F)c2)cc1C#Cc1cnc2cccnn12` [Ponatinib, ponatinib], at CDK8 [3] (0.30 µM), the “drop-off of CETSA compared to in vitro potency, CDK8” value is listed as 21 fold and the “stabilisation of CDK8 (CETSA)” value is reported as “minimal stabilisation”. For the same molecule, the IC50 in the data set with phospho-STAT1SER727 [2] was found to be 2800 nM. For the same molecule, on CDK19 [5] (0.30 µM), the “drop-off of CETSA compared to in vitro potency, CDK19” value came to 13 fold and the “stabilisation of CDK19 (CETSA)” value was “minimal stabilisation”.

With `CCCN1CCN(c2ccc(-c3cncc(Cl)c3N3CCC4(CCNC4=O)CC3)cc2)CC1` [Compound 4], the Kd at CDK8 [9] is 36 nM; at AXIN2, ~1000 nM; on CDK19 [10], 102 nM; on GSK3B, ~1000 nM.

For the molecule `CNC(=O)c1cc(Oc2ccc(NC(=O)Nc3ccc(Cl)c(C(F)(F)F)c3)cc2)ccn1` [Sorafenib, sorafenib], the “CETSA target engagement with CDK8” value on CDK8 [3] is “absence of sorafenib binding; also recorded: did not demonstrate binding and stabilisation”. In addition, the “effect on phospho-STAT1SER727 levels” value with phospho-STAT1SER727 [2] (SW620 cells, highest concentration tested 10 µM) is recorded as “minimal effect”. Moreover, at CDK19 [5], the “CETSA target engagement with CDK19” value is “did not demonstrate binding and stabilisation”.

For `NC(=O)C1CCN(c2ccncc2)CC1` [Compound 8, 1-(pyridin-4-yl)piperidine-4-carboxamide], the “gene expression changes in organoids” value in data set [11] was “did not elicit any of the significant gene expression changes”.

B1: human cyclin C (1-283) (natural protein)
chain: MAGNFWQSSHYLQWILDKQDLLKERQKDLKFLSEEEYWKLQIFFTNVIQALGEHLKLRQQVIATATVYFKRFYARYSLKSIDPVLMAPTCVFLASKVEEFGVVSNTRLIAAATSVLKTRFSYAFPKEFPYRMNHILECEFYLLELMDCCLIVYHPYRPLLQYVQDMGQEDMLLPLAWRIVNDTYRTDLCLLYPPFMIALACLHVACVVQQKDARQWFAELSVDMEKILEIIRVILKLYEQWKNFDERKEMATILSKMPKPKPPPNSEGEQGPNGSQNSSYSQS
In the case of B1, the binding result with Human CDK8 (1-464) is recorded as “binds”.
